One assay concerns the target T1, CAXII (Homo sapiens, UniProt O43570).
T1 construct: Isozymes CAIX, CAXII, and CAXIV were the catalytic domains of the proteins; made in house; host or cells: E. coli
The assay is described as follows: Thermal shift assay (TSA), recombinant CAXII. In kind it is binding. The conditions noted are these: 37 °C, pH 7.0, observed (not intrinsic). As for the experimental part: (§1) The binding affinities of all fluorescein-containing compounds were determined for all 12 catalytically active CA isozymes by the thermal shift assay (TSA). […] However, the SFA technique cannot determine the affinities lower than the enzyme concentration used in the assay. […] In addition, we used isothermal titration calorimetry (ITC), the standard assay to determine affinity and enthalpy of protein–ligand binding. […] Therefore, ITC was used only to determine the enthalpy of interaction and confirm the ordering of compound affinities.
(§2) All twelve catalytically active human CA isozymes were prepared recombinantly as previously described. Isozymes CAIX, CAXII, and CAXIV were the catalytic domains of the proteins[14],[38]. All isozymes were expressed in E. coli except CAIX that has been prepared in mammalian cells. The proteins were chromatographically purified on ion-exchange or benzene sulfonamide containing affinity columns. Protein MW was confirmed by mass spectrometry with 1 Da precision as predicted from gene sequence.
(§3) Compound affinities for the twelve catalytically active CA isozymes were determined by the thermal shift assay as previously described[30],[39]. Protein solutions containing 1,8-anilinonaphthalenesulfonate fluorescent probe were heated from 25 to 100 °C at a rate of one degree per minute while following the fluorescence of the probe. The temperature scanning curves provided the melting temperature Tm of the protein. The Tm has a distinct dependence on the concentration of a compound. Stronger binders shift the Tm to a greater extent than the weak binders. The Tm dependencies on compound concentration were fit to obtain the affinity Kd[40].

Another assay deals with T2, CAXIV (Homo sapiens, UniProt Q9ULX7).
T2 construct: Isozymes CAIX, CAXII, and CAXIV were the catalytic domains of the proteins; made in house; host or cells: E. coli
T2 sequence (Q9ULX7 20-278 limits assumed): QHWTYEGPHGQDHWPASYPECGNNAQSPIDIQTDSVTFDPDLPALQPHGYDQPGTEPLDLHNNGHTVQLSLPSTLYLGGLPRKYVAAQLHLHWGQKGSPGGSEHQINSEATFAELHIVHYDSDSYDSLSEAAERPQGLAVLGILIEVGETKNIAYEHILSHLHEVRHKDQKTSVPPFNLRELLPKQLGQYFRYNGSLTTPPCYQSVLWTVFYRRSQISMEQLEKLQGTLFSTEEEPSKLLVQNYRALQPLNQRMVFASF
Put plainly: Thermal shift assay (TSA), recombinant CAXIV. In kind it is binding. The conditions noted are these: 37 °C, pH 7.0, observed (not intrinsic).

The target of another assay is T3, CAVI (Homo sapiens, UniProt P23280).
T3 construct: made in house; host or cells: E. coli
T3 sequence (P23280 18-308): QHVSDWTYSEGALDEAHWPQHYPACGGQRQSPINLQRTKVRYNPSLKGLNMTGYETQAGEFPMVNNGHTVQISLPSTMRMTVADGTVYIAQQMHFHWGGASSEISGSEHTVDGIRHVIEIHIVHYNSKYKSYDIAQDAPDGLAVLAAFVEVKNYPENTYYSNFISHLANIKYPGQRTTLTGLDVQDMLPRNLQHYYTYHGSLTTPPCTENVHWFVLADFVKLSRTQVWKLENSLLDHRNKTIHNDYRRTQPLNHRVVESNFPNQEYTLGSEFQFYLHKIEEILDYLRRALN
The assay is described as follows: Thermal shift assay (TSA), recombinant CAVI. The conditions noted are these: 37 °C, pH 7.0, observed (not intrinsic). In kind it is binding. As for the experimental part: as §1, §2, §3

For assay [1], the target named is T4, catalytic domain of recombinant human CAIX (Homo sapiens, UniProt Q16790).
T4 construct: Isozymes CAIX, CAXII, and CAXIV were the catalytic domains of the proteins; made in house; host or cells: mammalian cells
The assay is described as follows: Thermal shift assay (TSA), recombinant CAIX catalytic domain. To be noted: for Kd: TSA, 37 °C, pH 7.0, observed (not intrinsic), read-out: Kd CAIX; for binding to CAIX by TSA (in words): recombinant CAIX. In kind it is binding.

A further assay concerns the target T5, CAI (Homo sapiens, UniProt P00915).
T5 construct: made in house; host or cells: E. coli
Put plainly: Thermal shift assay (TSA), recombinant CAI. In kind it is binding. The conditions noted are these: 37 °C, pH 7.0, observed (not intrinsic).

For the next assay, the target named is T6, CAVA (Homo sapiens, UniProt P35218).
T6 construct: made in house; host or cells: E. coli
T6 sequence (P35218 39-305): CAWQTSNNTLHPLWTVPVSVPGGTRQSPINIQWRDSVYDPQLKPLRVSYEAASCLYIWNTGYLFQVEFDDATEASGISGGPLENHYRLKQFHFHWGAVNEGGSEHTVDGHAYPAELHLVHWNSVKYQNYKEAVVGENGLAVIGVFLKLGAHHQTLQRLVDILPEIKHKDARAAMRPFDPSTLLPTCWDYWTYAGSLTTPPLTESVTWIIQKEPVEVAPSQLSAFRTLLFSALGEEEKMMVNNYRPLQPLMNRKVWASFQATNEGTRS
Put plainly: Thermal shift assay (TSA), recombinant CAVA. The conditions noted are these: 37 °C, pH 7.0, observed (not intrinsic). In kind it is binding. As for the experimental part: as §1, §2, §3

For another assay, the target named is T7, CAXIII (Homo sapiens, UniProt Q8N1Q1).
T7 construct: made in house; host or cells: E. coli
T7 sequence (Q8N1Q1 whole entry): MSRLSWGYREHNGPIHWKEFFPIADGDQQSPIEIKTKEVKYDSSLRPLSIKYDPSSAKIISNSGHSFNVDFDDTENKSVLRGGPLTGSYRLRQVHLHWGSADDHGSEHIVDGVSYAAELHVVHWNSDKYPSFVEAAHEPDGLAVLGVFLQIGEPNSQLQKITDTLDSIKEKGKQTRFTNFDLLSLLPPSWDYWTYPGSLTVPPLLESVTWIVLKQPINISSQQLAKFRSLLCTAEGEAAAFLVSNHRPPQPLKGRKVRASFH
Put plainly: Thermal shift assay (TSA), recombinant CAXIII. In kind it is binding. The conditions noted are these: 37 °C, pH 7.0, observed (not intrinsic).

In a further assay the target is T8, CAVB (Homo sapiens, UniProt Q9Y2D0).
T8 construct: made in house; host or cells: E. coli
T8 sequence (Q9Y2D0 34-317): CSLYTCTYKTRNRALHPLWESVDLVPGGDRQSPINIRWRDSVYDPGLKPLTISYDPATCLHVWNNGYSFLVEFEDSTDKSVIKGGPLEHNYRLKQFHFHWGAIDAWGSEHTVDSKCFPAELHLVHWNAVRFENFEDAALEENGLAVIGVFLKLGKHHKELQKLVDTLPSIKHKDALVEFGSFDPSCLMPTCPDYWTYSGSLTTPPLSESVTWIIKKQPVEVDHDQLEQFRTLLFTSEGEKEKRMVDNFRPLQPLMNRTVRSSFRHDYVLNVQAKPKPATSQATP
The assay is described as follows: Thermal shift assay (TSA), recombinant CAVB. In kind it is binding. The conditions noted are these: 37 °C, pH 7.0, observed (not intrinsic).

The next assay addresses T9, recombinant human CAIX (Homo sapiens, UniProt Q16790).
T9 construct: Isozymes CAIX, CAXII, and CAXIV were the catalytic domains of the proteins; made in house; host or cells: mammalian cells
Put plainly: Isothermal titration calorimetry (ITC) with recombinant CAIX. In kind it is binding. As for the experimental part:
as §1
Affinities of several selected compounds to several human CA isozymes have been determined by ITC as described previously[43],[44]. The protein solution was placed in the cell of iTC200 titration calorimeter while the compound solution in identical buffer was placed in the syringe. After thermal equilibration, the compound solution was injected into the cell by identical injections. The heat produced during the reaction was measured by the calorimeter providing the shape of the curve that in turn yielded the enthalpy and the affinity Kd of the interaction.
Picomolar Fluorescent Probes for Compound Affinity Determination to Carbonic Anhydrase IX Expressed in Live Cancer Cells
Figure S1. […] The binding affinity of GZ19-32 was too high to be accurately measured by ITC due to the limitation related to the Wiseman parameter C. […]
For orientation: In ITC the heat of successive injections is recorded.

The target of a further assay is T10, CAVII (Homo sapiens, UniProt P43166).
T10 construct: made in house; host or cells: E. coli
T10 sequence (P43166 whole entry): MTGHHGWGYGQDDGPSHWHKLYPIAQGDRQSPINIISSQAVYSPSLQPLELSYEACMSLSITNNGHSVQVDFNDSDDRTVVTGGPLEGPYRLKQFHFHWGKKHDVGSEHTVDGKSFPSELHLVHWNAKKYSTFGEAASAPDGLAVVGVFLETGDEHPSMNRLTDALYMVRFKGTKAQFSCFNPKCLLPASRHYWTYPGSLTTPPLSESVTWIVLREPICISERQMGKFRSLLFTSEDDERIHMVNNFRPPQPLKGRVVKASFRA
The assay is described as follows: Thermal shift assay (TSA), recombinant CAVII. In kind it is binding. To be noted: 37 °C, pH 7.0, observed (not intrinsic).

The target in the next assay is T11, CAIII (Homo sapiens, UniProt P07451).
T11 construct: made in house; host or cells: E. coli
T11 sequence (P07451 whole entry): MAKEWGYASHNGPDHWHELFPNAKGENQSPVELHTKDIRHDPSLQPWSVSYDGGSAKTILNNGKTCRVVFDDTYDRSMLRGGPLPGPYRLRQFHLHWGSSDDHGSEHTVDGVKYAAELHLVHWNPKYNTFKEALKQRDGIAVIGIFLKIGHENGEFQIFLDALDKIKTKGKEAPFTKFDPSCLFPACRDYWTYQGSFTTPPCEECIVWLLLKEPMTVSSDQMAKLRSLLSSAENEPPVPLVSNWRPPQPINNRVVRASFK
The assay is described as follows: Thermal shift assay (TSA), recombinant CAIII. To be noted: 37 °C, pH 7.0, observed (not intrinsic). In kind it is binding. How it is done: as §1, §2, §3

The subject of assay [2] is HeLa CAIX-KO and normoxia-grown WT HeLa cells. The assay is described as follows: Fluorescein-labeled compound dosing to CAIX-KO and normoxia-grown HeLa cells (non-specific binding). In kind it is cell-based, human. As for the experimental part: HeLa cell culture was grown in 12-well plates, either under hypoxia (1% O2) or under normoxia (21% O2), for 70 to 76 h. The medium was removed. Then 200 µL of serially diluted compound (twelve twofold steps) in the FB medium, usually starting at 80 nM (80, 40, 20, …, 0 nM), was added and incubated at 37 ℃ under normoxia in the CO2 incubator for 20 min (2 or 5 min in some experiments where specified). Then the compound solution was removed and the cells were washed 3 times for 1.5–2 min with 400 µL of PBS at RT. Then 180 µL of TrypLe express enzyme (ThermoFisher) was added to each well and incubated in CO2 incubator for 5 min to 10 min until the cells deattached from the surface. After addition of 20 µL of Defined Trypsin Inhibitor solution (ThermoFisher), cells were resuspended by pipetting and 150 µL of the suspension from each well were transferred to black Thermo Scientific™ Nunc MicroWell 96-Well Optical-Bottom Plates for fluorescence and absorbance measurements. The fluorescence was recorded at 485 nm excitation and 520 nm emission wavelengths in the plate reader (Synergy HTX, BioTek). The absorbance was recorded at 650 nm to measure the optical density of the cell suspension.
The compound solution was prepared by weighing 3–5 mg of a purified compound and dissolving in DMSO at 10 mM concentration. The 1 mM compound stock in DMSO was prepared by taking 10 µL of 10 mM stock and adding to 90 µL DMSO. The 10 µM compound stock was prepared by taking 10 µL of 1 mM compound stock in DMSO and adding 990 µL of the FB medium (this stock contained 1% of DMSO). Then 80 nM compound solution was prepared by taking 10 µL of 10 µM solution and adding 1.24 mL of the FB medium and placed to the first Eppendorf tube. Then 300 µL of FB medium were added to the Eppendorf tubes 2 to 12. A serial dilution was performed by taking 300 µL of solution from tube 1 to 2, then from 2 to 3 and so on while mixing vigorously at each step. No solution was transferred to the last tube thus it contained only FB medium and no compound. Then 200 µL from 12 tubes were transferred to the 12 wells of cell culture-containing 12-well plate, starting from the lowest concentration.
This equation was fit to the dosing curves of several fluorescently-labeled ligands to both the cells grown in hypoxia and in normoxia, both to the WT and CRISPR-Cas9 CAIX knockout cells. The cells bound both the GZ19-32 and GZ20-40 ligands that differed only in the length of the linker and both contained the same head-group. […] Furthermore, the ligands that had their sulfonamide amino group substituted with the methyl completely abandoned their capability of binding CAIX in this concentration region. The binding was also abolished for the CAIX-KO HeLa cells.

Some results are limits rather than exact numbers.

The record followed here is paper PMC9586938, “Picomolar fluorescent probes for compound affinity determination to carbonic anhydrase IX expressed in live cancer cells” (Scientific Reports, 2022).

T1 sequence (O43570 30-289 limits assumed): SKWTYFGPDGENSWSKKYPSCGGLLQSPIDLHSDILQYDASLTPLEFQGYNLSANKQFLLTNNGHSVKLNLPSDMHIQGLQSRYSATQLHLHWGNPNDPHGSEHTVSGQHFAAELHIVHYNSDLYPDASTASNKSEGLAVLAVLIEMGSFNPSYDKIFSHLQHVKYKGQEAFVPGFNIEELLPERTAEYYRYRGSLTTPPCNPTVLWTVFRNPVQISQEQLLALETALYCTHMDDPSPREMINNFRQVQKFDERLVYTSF
T5 sequence (P00915 whole entry): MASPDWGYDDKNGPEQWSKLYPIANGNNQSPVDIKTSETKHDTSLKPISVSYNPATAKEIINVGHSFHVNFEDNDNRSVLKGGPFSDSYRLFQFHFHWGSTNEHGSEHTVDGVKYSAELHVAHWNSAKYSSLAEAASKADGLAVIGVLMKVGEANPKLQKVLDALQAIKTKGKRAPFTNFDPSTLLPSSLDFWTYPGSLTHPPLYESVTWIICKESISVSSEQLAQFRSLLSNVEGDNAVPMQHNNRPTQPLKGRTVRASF

As to `NS(=O)(=O)c1c(F)c(F)c(S(=O)(=O)CCC(=O)Nc2ccc3c(c2)C(=O)OC32c3ccc(O)cc3Oc3cc(O)ccc32)c(NC2CCCCCCC2)c1F` [GZ19-32, 3-((2-(cyclooctylamino)-3,5,6-trifluoro-4-sulfamoylphenyl)sulfonyl)-N-(3',6'-dihydroxy-3-oxo-3H-spiro[isobenzofuran-1,9'-xanthen]-5-yl)propanamide], the Kd amounted to 1.3 nM on CAXII; 3.3 nM on CAXIV; 330 nM at CAVI; 0.005 nM in assay [1]; 500 nM at CAI; 400 nM at CAVA. The Kd on CAXIII came out at 0.67 nM; at CAVB, 13 nM; at CAVII, 5 nM; on CAIII, 1670 nM. Moreover, the “binding to CAIX by TSA (in words)” value in assay [1] is recorded as “high affinity for CAIX (pM range)”. The “binding to CAIX by ITC (in words)” value on recombinant human CAIX is on record as “too high to be accurately measured”. For the same molecule, the “concentration above which compound binds normoxia-grown WT and CAIX-KO HeLa cells” value in assay [2] (5 min incubation, Fig. 9A) is given as greater than 100 nM. In assay [2] (CAIX-KO cells grown under hypoxia, 10 nM to 100 nM), the “fluorescence of compound bound to HeLa CAIX-KO cells” value is on record as “did not show an increase in fluorescence”.
As for “3-((2-(cyclooctylamino)-3,5,6-trifluoro-4-(methylsulfonyl)phenyl)sulfonyl)-N-(3',6'-dihydroxy-3-oxo-3H-spiro[isobenzofuran-1,9'-xanthen]-5-yl)propanamide and 3-((3-(cyclooctylamino)-2,5,6-trifluoro-4-(methylsulfonyl)phenyl)sulfonyl)-N-(3',6'-dihydroxy-3-oxo-3H-spiro[isobenzofuran-1,9'-xanthen]-5-yl)propanamide [GZ20-37]”, the Kd (at CAXII; on CAXIV; at CAVI; in [1]; on CAI; at CAVA) was greater than 100000 nM throughout. Moreover, the Kd on CAXIII, at CAVB, on CAVII and at CAIII was greater than 100000 nM in each case. Moreover, in assay [1], the “binding to CAIX by TSA (in words)” value is listed as “did not show binding”. Also, the “binding to CAIX by ITC (in words)” value at recombinant human CAIX is given as “did not show binding”. In addition, the “non-specific binding to cells” value in [2] (micromolar concentration range, Fig. 9B, 9C) is listed as “bound cells in the micromolar concentration range”.

By Kd is commonly meant the concentration at which binding is half-saturated.
